Columns and labels:
TRKA = biological target: T1, TRKA (Homo sapiens, UniProt P04629); assay: Kinase inhibition profile, KINOMEscan 11-point dose response; assay type: binding; details: for IC50: 11-point 3-fold serial dilution; for Ki: by Cheng-Prusoff equation
T1 construct: purchased Eurofins DiscoverX Corporation

CK1δ = biological target: T2, CK1δ (Homo sapiens, UniProt P48730); assay: as above; assay type: binding; details: for IC50: 11-point 3-fold serial dilution; for Ki: by Cheng-Prusoff equation
T2 construct: purchased Eurofins DiscoverX Corporation
T2 sequence (P48730 whole entry): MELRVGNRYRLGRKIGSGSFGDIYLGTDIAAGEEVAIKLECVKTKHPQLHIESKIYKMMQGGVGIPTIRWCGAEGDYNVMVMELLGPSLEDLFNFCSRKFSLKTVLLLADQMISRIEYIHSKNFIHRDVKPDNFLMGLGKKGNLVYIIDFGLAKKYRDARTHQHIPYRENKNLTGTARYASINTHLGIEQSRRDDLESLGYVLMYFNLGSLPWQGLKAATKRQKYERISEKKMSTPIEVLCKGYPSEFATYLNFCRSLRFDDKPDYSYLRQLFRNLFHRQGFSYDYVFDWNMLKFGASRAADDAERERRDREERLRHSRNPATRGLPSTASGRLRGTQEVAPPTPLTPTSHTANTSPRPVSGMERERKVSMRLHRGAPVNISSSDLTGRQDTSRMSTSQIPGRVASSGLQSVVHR

DYRK1A = biological target: T3, DYRK1A (Homo sapiens, UniProt Q13627); assay: as above; assay type: binding; details: for IC50: 11-point 3-fold serial dilution; for Ki: by Cheng-Prusoff equation
T3 construct: purchased Eurofins DiscoverX Corporation

DYRK1B = biological target: T4, DYRK1B (Homo sapiens, UniProt Q9Y463); assay: as above; assay type: binding; details: for IC50: 11-point 3-fold serial dilution; for Ki: by Cheng-Prusoff equation
T4 construct: purchased Eurofins DiscoverX Corporation
T4 sequence (Q9Y463 whole entry): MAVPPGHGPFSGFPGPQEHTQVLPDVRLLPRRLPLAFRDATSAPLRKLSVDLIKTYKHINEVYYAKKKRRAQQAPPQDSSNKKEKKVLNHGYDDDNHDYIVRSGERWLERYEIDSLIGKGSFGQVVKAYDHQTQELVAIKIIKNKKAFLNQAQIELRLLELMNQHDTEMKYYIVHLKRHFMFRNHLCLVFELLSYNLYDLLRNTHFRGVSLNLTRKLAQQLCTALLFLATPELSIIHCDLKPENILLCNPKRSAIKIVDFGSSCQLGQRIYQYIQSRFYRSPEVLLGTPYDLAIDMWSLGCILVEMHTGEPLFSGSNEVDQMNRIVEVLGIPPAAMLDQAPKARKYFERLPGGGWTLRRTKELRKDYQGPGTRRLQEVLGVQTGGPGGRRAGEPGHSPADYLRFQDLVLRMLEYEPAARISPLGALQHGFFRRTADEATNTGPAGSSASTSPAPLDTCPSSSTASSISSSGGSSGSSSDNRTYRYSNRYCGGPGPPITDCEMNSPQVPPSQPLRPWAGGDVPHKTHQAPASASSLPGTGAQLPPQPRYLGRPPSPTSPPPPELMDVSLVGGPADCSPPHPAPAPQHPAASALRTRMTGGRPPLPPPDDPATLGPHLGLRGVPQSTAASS

A549 = assay: SRB cell proliferation inhibition assay; assay type: cell-based; details: human lung cancer cells, 72 h
Procedure: (§1) Human lung cancer cells (A549), colorectal cancer (HCT116) cells, breast cancer cells (MDA-MB-231), liver cancer cells (SK-HEP-1), and prostate cancer cells (PC-3) were purchased from the American Type Culture Collection (Manassas, VA, USA). Human gastric cancer cells (SNU-638) were purchased from the Korean Cell Line Bank (Seoul, Korea). Cells were cultured in medium (Dulbecco’s modified Eagle’s medium for MDA-MB-231 and SK-HEP-1 cells; Roswell Park Memorial Institute 1640 for A549, HCT116, SNU-638, PC-3 cells) supplemented with penicillin-streptomycin and 10% fetal bovine serum at 37 °C in a humidified incubator with 5% carbon dioxide. Cells were seeded at a density of 4–7 × 10^4 cells/mL in 96-well culture plates, and then treated with indicated compounds for 72 h. At the end of the experiment, cells were fixed with 10% trichloroacetic acid (TCA) solution and subjected to sulforhodamine B (SRB) assay to determine cell proliferation. The percentage of cell proliferation was calculated with the following formula:Cell proliferation (%) = 100 × [(A treated − A zero day)/(A control − A zero day)], where A is the average absorbance. The IC50 values were calculated through non-linear regression analysis using TableCurve 2D v5.01 (Systat Software Inc., San Jose, CA, USA). All experiments were performed in triplicate and data shown are representative of two or three independent experiments.

HCT116 = assay: SRB cell proliferation inhibition assay; assay type: cell-based; details: HCT-116, human colon cancer cells, 72 h
Procedure: as §1

MDA-MB-231 = assay: SRB cell proliferation inhibition assay; assay type: cell-based; details: human breast cancer cells, 72 h
Procedure: as §1

PC-3 = assay: SRB cell proliferation inhibition assay; assay type: cell-based; details: human prostate cancer cells, 72 h
Procedure: as §1

SK-HEP-1 = assay: SRB cell proliferation inhibition assay; assay type: cell-based; details: SK-HEP1, human liver cancer cells, 72 h
Procedure: as §1

SNU638 = assay: SRB cell proliferation inhibition assay; assay type: cell-based; details: SNU-638, human stomach cancer cells, 72 h
Procedure: as §1

T1 sequence (P04629 33-796): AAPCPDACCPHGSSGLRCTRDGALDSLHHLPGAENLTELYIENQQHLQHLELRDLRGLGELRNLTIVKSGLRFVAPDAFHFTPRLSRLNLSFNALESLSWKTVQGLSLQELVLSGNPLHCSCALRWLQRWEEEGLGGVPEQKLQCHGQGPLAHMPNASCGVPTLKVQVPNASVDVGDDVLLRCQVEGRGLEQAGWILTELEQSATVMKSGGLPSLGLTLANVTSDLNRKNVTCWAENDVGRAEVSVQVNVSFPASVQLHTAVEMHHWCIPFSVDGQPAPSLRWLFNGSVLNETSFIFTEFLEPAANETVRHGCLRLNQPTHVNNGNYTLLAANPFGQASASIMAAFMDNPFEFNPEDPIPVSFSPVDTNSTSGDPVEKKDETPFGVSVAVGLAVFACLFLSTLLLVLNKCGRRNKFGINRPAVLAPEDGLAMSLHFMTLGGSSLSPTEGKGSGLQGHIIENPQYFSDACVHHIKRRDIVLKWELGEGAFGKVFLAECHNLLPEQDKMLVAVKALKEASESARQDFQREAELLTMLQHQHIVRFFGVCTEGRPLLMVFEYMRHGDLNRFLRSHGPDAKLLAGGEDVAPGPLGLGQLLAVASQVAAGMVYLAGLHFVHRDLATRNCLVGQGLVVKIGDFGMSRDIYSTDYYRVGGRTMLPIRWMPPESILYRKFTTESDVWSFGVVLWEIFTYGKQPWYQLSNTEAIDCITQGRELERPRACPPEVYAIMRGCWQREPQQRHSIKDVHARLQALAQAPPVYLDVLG

Compound | IC50 (TRKA) | IC50 (CK1δ) | IC50 (DYRK1A) | Ki (DYRK1A) | IC50 (DYRK1B) | Ki (DYRK1B) | IC50 (A549) | IC50 (HCT116) | IC50 (MDA-MB-231) | IC50 (PC-3) | IC50 (SK-HEP-1) | IC50 (SNU638) | Ki (TRKA) | Ki (CK1δ) | melting point
Nc1ncnc2c1c(-c1ccc(N3CCS(=O)(=O)CC3)cc1)cn2C1SC(CO)C(O)C1O (stereo not drawn) [Compound 1e, 4-(4-(4-Amino-7-(3,4-dihydroxy-5-(hydroxymethyl)tetrahydrothiophen-2-yl)-7H-pyrrolo[2,3-d]pyrimidin-5-yl)phenyl)thiomorpholine 1,1-dioxide] | > 10000 nM | > 10000 nM | > 10000 nM |  | > 10000 nM |  | > 50000 nM | > 50000 nM | > 50000 nM | > 50000 nM | > 50000 nM | > 50000 nM |  |  | 188 to 192 °C
CCS(=O)(=O)Nc1ccc(-c2cn(C3SC(CO)C(O)C3O)c3ncnc(N)c23)cc1 (stereo not drawn) [Compound 1f, N-(4-(4-Amino-7-(3,4-dihydroxy-5-(hydroxymethyl)tetrahydrothiophen-2-yl)-7H-pyrrolo[2,3-d]pyrimidin-5-yl)phenyl)ethanesulfonamide] | > 10000 nM | 910 nM | > 10000 nM |  | > 10000 nM |  | 41600 nM | 30600 nM | 30100 nM | 15400 nM | 10300 nM | 27500 nM |  | 910 nM | 127 to 132 °C
COc1cc([C@@H]2c3cc4c(cc3[C@@H](O[C@@H]3O[C@@H]5CO[C@@H](C)O[C@H]5[C@H](O)[C@H]3O)[C@H]3COC(=O)[C@H]23)OCO4)cc(OC)c1O [Etoposide, reference compound] |  |  |  |  |  |  | 360 nM | 1110 nM | 4900 nM | 23400 nM | 910 nM | 410 nM |  |  | 
Nc1ccn([C@@H]2O[C@H](CO)[C@@H](O)C2(F)F)c(=O)n1 [Gemcitabine, reference compound] |  |  |  |  |  |  | 300 nM | 200 nM | 1100 nM | 3600 nM | 200 nM | 100 nM |  |  | 
COc1ccc2c(c1)[nH]c1c(C)nccc12 [Harmine, reference compound] | > 10000 nM |  |  |  |  |  |  |  |  |  |  |  |  |  | 
COc1ncc2cc(C(=O)Nc3cc(C(=O)NCc4cccc(Cl)c4)ccc3Cl)c(=O)[nH]c2n1 [TC-S 7004, reference compound] | > 10000 nM | > 10000 nM | < 10 nM |  | 22 nM | 22 nM |  |  |  |  |  |  |  |  | 
LH 846 [reference compound] | > 10000 nM | 80 nM | > 10000 nM |  | > 10000 nM |  |  |  |  |  |  |  |  |  | 

The remaining lines, values ahead:

IC50 (TRKA) | IC50 (CK1δ) | IC50 (DYRK1A) | Ki (DYRK1A) | IC50 (DYRK1B) | Ki (DYRK1B) | IC50 (A549) | IC50 (HCT116) | IC50 (MDA-MB-231) | IC50 (PC-3) | IC50 (SK-HEP-1) | IC50 (SNU638) | Ki (TRKA) | Ki (CK1δ) | melting point | Compound
> 10000 nM | > 10000 nM | 14 nM | 28 nM | 50 nM | 50 nM |  |  |  |  |  |  |  |  |  | Cc1nccc(-c2cn(Cc3ccccc3)c3cnccc23)n1 [AZ Dyrk1B 33, reference compound]
37 nM | 123 nM | 15 nM | 30 nM | 14 nM | 14 nM | 1020 nM | 2160 nM | 3310 nM | 2460 nM | 3380 nM | 1950 nM | 74 nM | 123 nM | 197 to 199 °C | Nc1ncnc2c1c(-c1ccco1)cn2[C@@H]1S[C@H](CO)[C@@H](O)[C@H]1O [Compound 1a, (2R,3R,4S,5R)-2-(4-Amino-5-(furan-2-yl)-7H-pyrrolo[2,3-d]pyrimidin-7-yl)-5-(hydroxymethyl)tetrahydrothiophene-3,4-diol]
11 nM | 18 nM | 166 nM | 332 nM | 117 nM | 117 nM | 1650 nM | 1740 nM | 2720 nM | 2480 nM | 1380 nM | 2410 nM | 22 nM |  | 166 to 172 °C | Nc1ncnc2c1c(-c1cccs1)cn2[C@@H]1S[C@H](CO)[C@@H](O)[C@H]1O [Compound 1b, (2R,3R,4S,5R)-2-(4-Amino-5-(thiophen-2-yl)-7H-pyrrolo[2,3-d]pyrimidin-7-yl)-5-(hydroxymethyl)tetrahydrothiophene-3,4-diol]
474 nM | 77 nM | 112 nM | 224 nM | 86 nM | 86 nM | 970 nM | 560 nM | 310 nM | 200 nM | 220 nM | 470 nM | 948 nM | 77 nM | 110 to 112 °C | C=Cc1cn([C@@H]2S[C@H](CO)[C@@H](O)[C@H]2O)c2ncnc(N)c12 [Compound 1c, (2R,3R,4S,5R)-2-(4-Amino-5-vinyl-7H-pyrrolo[2,3-d]pyrimidin-7-yl)-5-(hydroxymethyl)tetrahydrothiophene-3,4-diol]
157 nM | 27 nM | 357 nM | 714 nM | 288 nM | 288 nM | 7570 nM | 6350 nM | 8830 nM | 9210 nM | 7810 nM | 6320 nM | 314 nM | 27 nM | 102 to 104 °C | Nc1ncnc2c1c(-c1ccccc1)cn2[C@@H]1S[C@H](CO)[C@@H](O)[C@H]1O [Compound 1d, (2R,3R,4S,5R)-2-(4-Amino-5-phenyl-7H-pyrrolo[2,3-d]pyrimidin-7-yl)-5-(hydroxymethyl)tetrahydrothiophene-3,4-diol]
293 nM | 970 nM | 1260 nM | 2510 nM | 1070 nM | 1070 nM | > 50000 nM | > 50000 nM | 45500 nM | > 50000 nM | 6050 nM | > 50000 nM | 586 nM | 970 nM | 190 to 192 °C | CC#Cc1cn([C@@H]2S[C@H](CO)[C@@H](O)[C@H]2O)c2ncnc(N)c12 [Compound 1h, (2R,3R,4S,5R)-2-(4-Amino-5-(prop-1-yn-1-yl)-7H-pyrrolo[2,3-d]pyrimidin-7-yl)-5-(hydroxymethyl)tetrahydrothiophene-3,4-diol]
573 nM | 430 nM | 2980 nM | 5960 nM | 1340 nM | 1340 nM | > 50000 nM | > 50000 nM | > 50000 nM | > 50000 nM | > 50000 nM | > 50000 nM | 1150 nM | 430 nM | 161 to 162 °C | CCC#Cc1cn([C@@H]2S[C@H](CO)[C@@H](O)[C@H]2O)c2ncnc(N)c12 [Compound 1i, (2R,3R,4S,5R)-2-(4-Amino-5-(but-1-yn-1-yl)-7H-pyrrolo[2,3-d]pyrimidin-7-yl)-5-(hydroxymethyl)tetrahydrothiophene-3,4-diol]
958 nM | 1320 nM | > 10000 nM |  | > 10000 nM |  | > 50000 nM | > 50000 nM | 29600 nM | > 50000 nM | > 50000 nM | > 50000 nM |  | 1320 nM | 144 to 146 °C | CC(C)(C)C#Cc1cn([C@@H]2S[C@H](CO)[C@@H](O)[C@H]2O)c2ncnc(N)c12 [Compound 1j, (2R,3R,4S,5R)-2-(4-Amino-5-(3,3-dimethylbut-1-yn-1-yl)-7H-pyrrolo[2,3-d]pyrimidin-7-yl)-5-(hydroxymethyl)tetrahydrothiophene-3,4-diol]
393 nM | 1780 nM | > 10000 nM |  | > 10000 nM |  | > 50000 nM | > 50000 nM | 30600 nM | > 50000 nM | 8310 nM | > 50000 nM |  | 1780 nM | 166 to 168 °C | Nc1ncnc2c1c(C#CC1CC1)cn2[C@@H]1S[C@H](CO)[C@@H](O)[C@H]1O [Compound 1k, (2R,3R,4S,5R)-2-(4-Amino-5-(cyclopropylethynyl)-7H-pyrrolo[2,3-d]pyrimidin-7-yl)-5-(hydroxymethyl)tetrahydrothiophene-3,4-diol]
177 nM | > 10000 nM | > 10000 nM |  | > 10000 nM |  |  |  |  |  |  |  |  |  |  | Cc1ccc(NC(=O)Nc2cc(C(F)(F)F)ccc2F)cc1Nc1ccc2c(c1)NC(=O)/C2=C\c1ccc[nH]1 [GNF 5837, reference compound]
